# The supplement of paper PMC10307832
# Key:
# Experiment in all cases: relative viability (nuclei count vs DMSO), 5 days (fraction); higher = more cells survive
# [1] = compound: COc1cccc2cc(-c3nc([C@H]4CC[C@H](C(=O)O)CC4)n4ncnc(N)c34)[nH]c12 [OSI-027] + COc1cc2c(Oc3ccc(NC(=O)C4(C(=O)Nc5ccc(F)cc5)CC4)cc3F)ccnc2cc1OCCCN1CCOCC1 [Foretinib] (partner 0.25 µM)
# Method in brief: (§1)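 Relative viability was taken as the ratio of nuclei in treated wells to nuclei in vehicle wells. Lung cancer cell lines in 1536-well plates received compounds by pin tool one day after seeding, either one drug alone or a fixed anchor-drug dose plus five library-drug doses (not always all listed) in √10 steps. Nuclei were counted on 4× images after 5 days of treatment, and values are medians of duplicate plates.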
# [2] = compound: CCCS(=O)(=O)Nc1ccc(F)c(C(=O)c2c[nH]c3ncc(-c4ccc(Cl)cc4)cc23)c1F [Vemurafenib] + O=C(c1cc(Cc2n[nH]c(=O)c3ccccc23)ccc1F)N1CCN(C(=O)C2CC2)CC1 [Olaparib] (partner 8 µM)
# Method in brief: as §1
# [3] = compound: CCCS(=O)(=O)Nc1ccc(F)c(C(=O)c2c[nH]c3ncc(-c4ccc(Cl)cc4)cc23)c1F [Vemurafenib] + N=C(N)NC(=N)NCCc1ccccc1 [Phenformin] (partner 250 µM)
# Method in brief: as §1
# [4] = compound: COc1cccc2cc(-c3nc([C@H]4CC[C@H](C(=O)O)CC4)n4ncnc(N)c34)[nH]c12 [OSI-027] + O=C(CCCCCCC(=O)Nc1ccccc1)NO [Vorinostat] (partner 1 µM)
# Method in brief: as §1
Cell Line,relative viability ([1]; first compound 0.01 µM),relative viability ([1]; first compound 0.03162 µM),relative viability ([1]; first compound 0.1 µM),relative viability ([1]; first compound 0.3162 µM),relative viability ([1]; first compound 1 µM),relative viability ([2]; first compound 0.03162 µM),relative viability ([2]; first compound 0.1 µM),relative viability ([2]; first compound 0.3162 µM),relative viability ([2]; first compound 1 µM),relative viability ([3]; first compound 0.03162 µM),relative viability ([3]; first compound 0.1 µM),relative viability ([3]; first compound 0.3162 µM),relative viability ([3]; first compound 1 µM),relative viability ([4]; first compound 0.01 µM),relative viability ([4]; first compound 0.03162 µM),relative viability ([4]; first compound 0.1 µM),relative viability ([4]; first compound 0.3162 µM),relative viability ([4]; first compound 1 µM)
EPLC-272H,0.712,0.498,0.594,0.41,0.236,0.717,0.742,0.834,0.867,0.355,0.226,0.263,0.362,0.384,0.358,0.267,0.384,0.233
HARA,0.91,0.92,0.835,0.715,0.322,0.761,0.289,0.899,0.942,0.434,0.283,0.328,0.323,0.581,0.568,,0.507,0.251
LU99A,0.75,0.763,0.685,0.517,0.302,0.245,0.259,,0.264,0.887,0.841,0.551,0.783,0.491,0.667,0.396,0.304,0.232
NCI-H2087,1.11,1.1,1.01,0.863,0.39,0.506,0.588,0.504,0.47,0.438,0.402,,0.467,0.971,0.769,0.613,0.815,0.161
NCI-H1734,0.87,0.92,0.799,0.726,0.477,0.55,0.62,0.611,0.615,0.403,0.358,0.359,0.356,0.912,0.781,0.728,0.707,0.455
NCI-H2170,1.1,0.962,0.981,0.965,0.667,0.54,,0.624,0.553,0.396,0.354,0.376,0.454,0.779,0.814,0.806,0.662,0.454
PC-3 [JPC-3],1.02,0.976,0.963,0.98,0.454,,,1.05,1.25,0.482,,0.498,0.513,0.649,0.787,0.454,0.56,0.527
ABC-1,1.13,0.996,0.904,0.652,0.567,1.12,0.8,0.6,0.93,0.241,0.297,0.276,0.246,0.764,1.19,0.66,0.67,0.758
NCI-H1651,0.732,0.677,0.69,0.653,0.491,0.167,0.203,0.193,0.169,0.318,0.295,0.325,0.311,0.57,0.482,0.509,0.528,0.469
NCI-H460,1.06,0.762,1,0.948,0.582,0.44,0.408,,0.39,0.495,0.52,0.316,0.52,1.06,0.594,0.685,0.65,0.219
NCI-H2228,0.887,0.791,0.831,0.745,0.439,0.639,0.87,0.611,0.6,0.376,0.298,0.302,0.267,0.509,0.511,0.528,0.564,0.45
LOU-NH91,0.924,0.914,0.818,0.8,0.58,0.876,0.671,0.743,0.894,0.644,,,0.731,0.858,0.913,0.69,0.712,0.479
RERF-LC-KJ,0.869,0.885,0.919,0.622,0.445,0.842,0.944,0.923,1.06,0.428,0.408,0.398,0.498,0.647,0.685,0.595,0.529,0.426
EKVX,0.707,0.764,0.74,0.568,0.581,0.891,,0.898,0.911,0.223,,0.223,0.213,0.661,0.618,0.649,0.561,0.4
NCI-H441,1.09,0.859,0.842,0.823,0.538,0.512,0.597,0.556,0.536,0.952,0.856,0.739,0.744,0.837,0.77,0.757,0.741,0.431
NCI-H1395,0.965,0.903,0.959,0.847,0.637,0.405,0.506,0.429,0.482,0.425,0.433,,0.495,0.633,0.745,0.476,0.645,0.567
CAL-12T,1.16,1.22,1.14,1.13,0.488,0.686,0.663,0.83,0.829,0.538,0.453,0.602,0.552,1.06,0.585,0.68,0.535,0.321
201T,,1.09,1.07,0.944,0.459,0.828,0.806,0.86,0.828,0.421,0.491,0.42,0.456,0.938,0.934,0.961,0.952,0.828
SK-LU-1,0.911,0.816,0.586,0.433,0.28,0.368,0.418,0.393,0.392,0.428,0.555,0.384,0.521,0.809,0.618,0.682,0.563,0.411
